Here are results for ten compounds from ChEMBL document CHEMBL1201862, “PubChem BioAssay data set” (2004).

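48-hour exposure; five concentrations; linearly interpolated endpoints. GI50 marks 50% less growth.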 Active and inactive are the calls of the source. No stated cut-off is given here; in the data, active = GI50 up to about 1.1 µM and inactive = higher. Bounds are passed on as bounds.

Some test systems named below: IGROV-1; HCT-116; HCC 2998; ACHN; OVCAR-8; SW-620; A498; SF-295; HT-29; PC-3; K562; SF-268; NCI-H23; NCI/ADR-RES; MDA-MB-231; HCT-15; CAKI-1; KM12; RXF 393; SK-MEL-5.
What all share (assay): NCI-60 cell line screen, 48 h

For `C[C@]12CC[C@H](O)C[C@@H]1CC[C@@H]1[C@@H]2CC[C@]2(C)[C@@H](C3=CC(=O)OC3)CC[C@]12O`, the GI50 with IGROV-1 was 3.26 µM (inactive); in the test on HCT-116 it was 1.73 µM (inactive); with HCC 2998, 3.05 µM (inactive); in the test with ACHN, 0.687 µM (active); in the test with OVCAR-8, 3.08 µM (inactive); in the test on SW-620, 3.51 µM (inactive). Moreover, the GI50 was 4.5 µM (inactive) in the test on A498; 2.73 µM (inactive) in the test with SF-295; 3.44 µM (inactive) in the test on HT-29; 2.58 µM (inactive) in the test with PC-3; 3.97 µM (inactive) in the test with K562; 1.75 µM (inactive) in the test with SF-268. For the same compound, the GI50 in the test on NCI-H23 was 1.87 µM (inactive); in the test on NCI/ADR-RES, 2.07 µM (inactive); with MDA-MB-231, 8.89 µM (inactive); in the test with HCT-15 it was 1.86 µM; with CAKI-1 it was 1.81 µM (inactive); with KM12, 5.81 µM (inactive). For the same compound, the GI50 is 0.736 µM (active) in the test on RXF 393 and 1.15 µM (inactive) with SK-MEL-5.
Turning to `OC(Cc1cccnc1)(c1ccccc1)c1ccccc1`, the GI50 in the test with IGROV-1, with HCT-116, in the test with HCC 2998, with ACHN, in the test with OVCAR-8 and in the test on SW-620 was > 100 µM (inactive) in each case. In addition, the GI50 was > 100 µM (inactive) in the test on A498; 53.8 µM (inactive) in the test on SF-295; > 100 µM (inactive) in the test on HT-29; > 100 µM (inactive) in the test on PC-3; 72.1 µM (inactive) in the test with K562; > 100 µM (inactive) in the test with SF-268. Besides, the GI50 in the test with NCI-H23 was 70.8 µM (inactive); in the test with NCI/ADR-RES, 57.9 µM (inactive); with MDA-MB-231 it was > 100 µM (inactive); in the test on HCT-15, over 100 µM; with CAKI-1 it was > 100 µM (inactive); in the test with KM12 it was 59.7 µM (inactive). Also, the values for the GI50 in the test on RXF 393 and in the test with SK-MEL-5 were > 100 µM (inactive) and 32.9 µM (inactive), respectively.
In the case of `CCCCN1C(=O)c2c(-c3sccc3N)sc(-c3sccc3N)c2C1=O`, the GI50 in the test with IGROV-1 is 23 µM (inactive); in the test on HCT-116 it was 21.7 µM (inactive); with HCC 2998, 73.6 µM (inactive); with ACHN, 15.7 µM (inactive); in the test with OVCAR-8, 12.3 µM (inactive); in the test on SW-620, > 32.6 µM (inactive). For the same compound, the GI50 with A498 was 23.4 µM (inactive); with SF-295, 14.5 µM (inactive); with HT-29, 14.2 µM (inactive); with PC-3, 14.8 µM (inactive); with K562, 16.3 µM (inactive); in the test with SF-268, 12.3 µM (inactive). The GI50 in the test with NCI-H23 was 28 µM (inactive); in the test with NCI/ADR-RES, 21.3 µM (inactive); in the test with MDA-MB-231, 30.8 µM (inactive); in the test on HCT-15 it was over 34.9 µM; in the test on CAKI-1 it was 23.8 µM (inactive); in the test with KM12, 44.6 µM (inactive). Also, the results for the GI50 in the test on RXF 393 and in the test with SK-MEL-5 were 12.6 µM (inactive) and 29.8 µM (inactive), respectively.
As for `COC(=O)C(C)(/N=C/c1ccccc1)c1ccccc1` (stereo not given), the GI50 with IGROV-1, with HCT-116, in the test with HCC 2998, in the test on ACHN, with OVCAR-8 and in the test on SW-620 was > 100 µM (inactive) throughout. The GI50 in the test with A498, in the test on SF-295, in the test on HT-29, in the test on PC-3, in the test on K562 and in the test with SF-268 was > 100 µM (inactive) each time. Moreover, the GI50 is > 100 µM (inactive) in the test on NCI-H23; > 100 µM (inactive) in the test on NCI/ADR-RES; > 100 µM (inactive) in the test with MDA-MB-231; over 100 µM in the test on HCT-15; > 100 µM (inactive) with CAKI-1; > 100 µM (inactive) in the test with KM12. The GI50 with RXF 393 and in the test on SK-MEL-5 was > 100 µM (inactive) in each case.
In the case of `CC(=O)OC(CC(C)C)P1(=O)N(CC(C)(C)C)[C@@H]2CCCC[C@H]2N1CC(C)(C)C` (stereo not given in full), the GI50 in the test on IGROV-1 is 11.7 µM (inactive); in the test on HCT-116 it was 5.24 µM (inactive); in the test with HCC 2998 it was 6.38 µM (inactive); with ACHN, 7.28 µM (inactive); in the test with OVCAR-8, 8.2 µM (inactive); with SW-620 it was 11.3 µM (inactive). For the same compound, the GI50 is 7.06 µM (inactive) in the test on A498; 7.5 µM (inactive) in the test on SF-295; 7.1 µM (inactive) with HT-29; 3.73 µM (inactive) in the test with PC-3; 8.47 µM (inactive) in the test on K562; 15.1 µM (inactive) with SF-268. In addition, the GI50 is 10.2 µM (inactive) in the test with NCI-H23; 8.3 µM (inactive) with NCI/ADR-RES; 7.24 µM (inactive) in the test with MDA-MB-231; 9.82 µM in the test on HCT-15; 12.7 µM (inactive) in the test with CAKI-1; 9.66 µM (inactive) in the test on KM12. Besides, the GI50 in the test on RXF 393 is 6.38 µM (inactive); in the test with SK-MEL-5, 9.4 µM (inactive).
Turning to `COc1ccc(-c2nc(N)n(C)c2SSc2c(-c3ccc(OC)cc3)nc(N)n2C)cc1`, the GI50 is 14.3 µM (inactive) in the test with IGROV-1; 2.65 µM (inactive) in the test on HCT-116; 17.8 µM (inactive) with HCC 2998; 3.94 µM (inactive) with ACHN; 5.81 µM (inactive) in the test on OVCAR-8; 2.23 µM (inactive) in the test on SW-620. In addition, the GI50 in the test with A498 was 7.64 µM (inactive); in the test on SF-295, 11.6 µM (inactive); in the test with HT-29 it was 9.59 µM (inactive); with PC-3, 6.34 µM (inactive); with K562, 2.83 µM (inactive); in the test on SF-268, 12.6 µM (inactive). Besides, the GI50 with NCI-H23 is 5.14 µM (inactive); in the test with NCI/ADR-RES, 14.2 µM (inactive); with MDA-MB-231, 6.78 µM (inactive); with HCT-15, 3.04 µM; with CAKI-1, 10.1 µM (inactive); in the test on KM12 it was 12.9 µM (inactive). Moreover, the GI50 with RXF 393 is 2.74 µM (inactive); in the test on SK-MEL-5 it was 2.08 µM (inactive).
Turning to `N=C(N)SCc1cc(Cl)cc(Cl)c1O`, the GI50 was 18.5 µM (inactive) in the test on IGROV-1; 16.3 µM (inactive) in the test with HCT-116; 17.7 µM (inactive) with HCC 2998; 19.5 µM (inactive) in the test on ACHN; 18.3 µM (inactive) in the test on OVCAR-8; 20.7 µM (inactive) in the test with SW-620. The GI50 in the test with A498 was 22.3 µM (inactive); with SF-295, 25.5 µM (inactive); in the test with HT-29, 16 µM (inactive); in the test on PC-3, 19.3 µM (inactive); in the test on K562, 19.8 µM (inactive); in the test on SF-268 it was 21.8 µM (inactive). Further, the GI50 is 19 µM (inactive) in the test on NCI-H23; 26.2 µM (inactive) in the test on NCI/ADR-RES; 15.1 µM (inactive) in the test with MDA-MB-231; 20.1 µM with HCT-15; 18.6 µM (inactive) in the test with CAKI-1; 18.4 µM (inactive) in the test with KM12. For the same compound, the GI50 is 19.9 µM (inactive) in the test on RXF 393 and 16.6 µM (inactive) with SK-MEL-5.
Take `CCOC(=O)NC(Nc1ccc(OC(F)(F)F)cc1)(C(F)(F)F)C(F)(F)F`: the GI50 with IGROV-1, in the test with HCT-116, in the test on HCC 2998, in the test on ACHN, in the test on OVCAR-8 and in the test with SW-620 was > 100 µM (inactive) each time. Also, the GI50 in the test on A498, with SF-295, in the test with HT-29, with PC-3, in the test on K562 and with SF-268 was > 100 µM (inactive) throughout. Also, the GI50 in the test with NCI-H23 was > 100 µM (inactive); with NCI/ADR-RES it was > 100 µM (inactive); in the test with MDA-MB-231, > 100 µM (inactive); with HCT-15, over 100 µM; with CAKI-1 it was > 100 µM (inactive); with KM12, > 100 µM (inactive). The GI50 in the test with RXF 393 and in the test with SK-MEL-5 was > 100 µM (inactive) each time.
On to `O=C1Nc2ccccc2/C1=N/N=c1\cccc[nH]1`, for which the GI50 in the test with IGROV-1 is 1 µM (active); with HCT-116 it was 11.6 µM (inactive); with HCC 2998, 23.7 µM (inactive); with ACHN, 11 µM (inactive); in the test with OVCAR-8 it was 11.9 µM (inactive); with SW-620, > 100 µM (inactive). Further, the GI50 in the test with A498 was 25.8 µM (inactive); with SF-295 it was 51.9 µM (inactive); in the test on HT-29 it was 22.2 µM (inactive); in the test on PC-3, 52.8 µM (inactive); in the test with K562, 52.5 µM (inactive); in the test with SF-268, 35.4 µM (inactive). In addition, the GI50 was 28.2 µM (inactive) in the test with NCI-H23; 10.2 µM (inactive) in the test with NCI/ADR-RES; 12.6 µM (inactive) in the test on MDA-MB-231; 30.3 µM in the test with HCT-15; 32.8 µM (inactive) in the test on CAKI-1; 10.8 µM (inactive) in the test with KM12. In addition, the GI50 in the test on RXF 393 was 97.3 µM (inactive); in the test with SK-MEL-5, 40.4 µM (inactive).
In the case of `CCCCCCCCCCCCCCCCOCC(Cl)COP(=O)(O)OP(=O)(O)OCC1OC(n2cc(C)c(=O)[nH]c2=O)CC1O` (stereo not given), the GI50 is 55.2 µM (inactive) with IGROV-1; > 100 µM (inactive) in the test on HCT-116; > 100 µM (inactive) with HCC 2998; > 100 µM (inactive) with ACHN; 75.9 µM (inactive) with OVCAR-8; > 100 µM (inactive) in the test with SW-620. The GI50 with A498 is > 100 µM (inactive); with SF-295 it was 57 µM (inactive); in the test on HT-29, > 100 µM (inactive); with PC-3, 25.1 µM (inactive); with K562, > 100 µM (inactive); with SF-268 it was 69.2 µM (inactive). The GI50 in the test with NCI-H23 is > 100 µM (inactive); in the test on NCI/ADR-RES, 71.3 µM (inactive); in the test with MDA-MB-231 it was 49 µM (inactive); with HCT-15, over 100 µM; in the test with CAKI-1 it was > 100 µM (inactive); in the test on KM12 it was 95.7 µM (inactive). Moreover, the GI50 with RXF 393 and in the test with SK-MEL-5 was > 100 µM (inactive) each time.
